# Assay results published in the PolyMetriX glass transition set.
# ± gives the standard deviation of the reports.
row,SMILES,glass transition temperature [°C]
1,*CC#CC#CCOc1ccc(C(=O)OCCN(CCOC(=O)c2ccc(O*)cc2)c2ccc([N+](=O)[O-])cc2)cc1 (repeat unit),100.00
2,*c1ccc2c(c1)C(=O)N(C1CCC(CC3CCC(N4C(=O)c5ccc(C(*)(C(F)(F)F)C(F)(F)F)cc5C4=O)C(C)C3)CC1C)C2=O (repeat unit),225.00
3,"*Oc1ccc(C(CCC)(CCC)c2ccc(OC(*)=O)cc2)cc1 (repeat unit) [Poly[4,4-heptane bis(4-phenyl)carbonate]]",148 ± 0.6
4,*/C=C/C1CC(*)C2C(=O)N(CCC)C(=O)C12 (repeat unit),139.00
5,*Oc1ccc(P(C)(=O)c2ccc(Oc3ccc(C(C)(C)c4ccc(*)cc4)cc3)cc2)cc1 (repeat unit),192.00
6,*C1C(=O)N(c2cc(Br)c(O[Si](C)(C)C)c(Br)c2)C(=O)C1* (repeat unit),167.00
7,*CCCCCCOC(=O)OCCOC(=O)OCCCCCCOc1ccc(C(=O)c2ccc(O*)cc2)cc1 (repeat unit),15.00
8,*OC(=O)c1cccc(C(=O)OC2CC3CC(*)CC(C2)O3)c1 (repeat unit),113.00
9,*c1ccc(-c2sc(-c3ccc(-c4cc(CCCCCCCCCCCC)c(*)s4)cc3)cc2CCCCCCCCCCCC)cc1 (repeat unit),-19.20
10,*c1ccc(-c2sc(-c3cc(SCCCCCCCCCCCC)c(*)s3)cc2SCCCCCCCCCCCC)cc1 (repeat unit),65.40
11,*CC(*)C(=O)Oc1cccc(C(=O)OCC)c1 (repeat unit),24.00
12,*CCC1CC(*)C2C3CCC(C3)C12 (repeat unit),164.00
13,*CCCOC(=O)NCCCCCCNC(=O)O* (repeat unit),55.00
14,*CC(*)(C)C(=O)OCCCCCCCCCCCC (repeat unit),-47.90
15,*CCCCNC(=O)C(=O)N* (repeat unit),120.00
16,*c1cc(C)c(*)s1 (repeat unit),114.20
17,*CC(*)(C)C(=O)OCCC1CCN(CCCCCCOc2ccc(/N=N/c3ccc([N+](=O)[O-])cc3)cc2)CC1 (repeat unit),27.00
18,*CCCCCCNC(=O)CCP(=S)(CCC(=O)N*)c1ccccc1 (repeat unit),43.00
19,*CCCCCCCC(c1ccc(O)cc1)C(*)c1ccc(O)cc1C (repeat unit),4.00
20,*O[Si](*)(C)C1CC2CC1CC2OC(=O)OC(C)(C)C (repeat unit),60.00
21,*CC(*)c1cc(C(=O)OCC)ccc1-c1ccc(OCCCCCCCC)cc1 (repeat unit),95.00
22,*CCCCCNC(=O)Cc1ccc(C(=O)N*)cc1 (repeat unit),103.00
23,*CCCCCCCCOc1c(OC)cc(/C=C/c2cc(C(C)C)c(/C=C/c3cc(OC)c(O*)c(OC)c3)cc2C(C)C)cc1OC (repeat unit),85.00
24,*CC(*)c1ccc(OC(C)=O)c(OC)c1 (repeat unit),115.00
25,*CC(C)N1C(=O)C2C3C=CC(C4C(=O)N(*)C(=O)C34)C2C1=O (repeat unit),212.00
26,*O[Si](C)(C)O[Si](C)(C)O[Si](C)(C)O[Si](C)(C)OC(C)CCC(*)C (repeat unit),-96.00
27,*CCCCCCNC(=O)CCCCCCCC(=O)N* (repeat unit) [Poly(hexamethylene azelamide)],50.58 ± 12
28,*CC(*)(C)C(=O)OC(C)CC (repeat unit) [Poly(sec-butyl methacrylate)],57 ± 2.6

# Next, values leading:
row,glass transition temperature [°C],SMILES
1,240.00,*C(=O)c1ccc2c(c1)C(=O)N(C1CCC(CC3CCC(N4C(=O)c5ccc(*)cc5C4=O)C(C)C3)CC1C)C2=O (repeat unit)
2,162.20,*Oc1ccc(S(=O)(=O)c2ccc(OC3(F)C(*)(F)C(F)(F)C3(F)F)cc2)cc1 (repeat unit)
3,125.00,*=CNc1ccc(CCc2ccc(N=*)cc2)cc1 (repeat unit)
4,235.00,*Oc1ccc(C2(c3ccc(OC(*)=O)cc3)CC3CCC2C3)cc1 (repeat unit)
5,263.00,*c1ccc(Oc2ccc(-c3nc4cc(Oc5ccc6nc(-c7ccccc7)c(*)nc6c5)ccc4nc3-c3ccccc3)cc2)cc1 (repeat unit)
6,194.00,*c1ccc(Oc2ccc(Sc3ccc(Oc4ccc(N5C(=O)c6ccc(Oc7ccc(Oc8ccc(Oc9ccc%10c(c9)C(=O)N(*)C%10=O)cc8)cc7)cc6C5=O)cc4)cc3)cc2)cc1 (repeat unit)
7,386.00,*c1ccc(Oc2ccccc2-n2c(=O)c3cc4c(=O)n(*)c(=O)c4cc3c2=O)cc1 (repeat unit)
8,114.2,*Nc1cccc(NC(=O)CCCCC(*)=O)c1 (repeat unit)
9,245.00,*c1ccc(OC(=O)c2cccc(C(=O)Oc3ccc(-c4nc5ccccc5nc4*)cc3)c2)cc1 (repeat unit)
10,193.00,*Nc1cc(NC(=O)c2cc(OCCN(C)c3ccc([N+](=O)[O-])cc3)cc(C(*)=O)c2)cc(C(=O)OC2CC(C)CCC2C(C)C)c1 (repeat unit)
11,358.00,*C(=O)Nc1ccc(-c2ccc(NC(=O)c3ccc4c(c3)C(=O)N(c3ccc(Oc5ccc(N6C(=O)c7ccc(*)cc7C6=O)cc5-c5ccccc5)c(-c5ccccc5)c3)C4=O)cc2)cc1 (repeat unit)
12,140.00,*c1cccc(NC(=O)CCCCC(=O)Nc2cccc(S(*)(=O)=O)c2)c1 (repeat unit)
13,200.00,*/C(=C(/*)c1ccc(Oc2ccccc2)cc1)c1ccccc1 (repeat unit)
14,307.00,*c1ccc(NC(=O)c2cc(C(=O)Nc3ccc(S(*)(=O)=O)cc3)cc(S(=O)(=O)c3ccccc3)c2)cc1 (repeat unit)
15,153.00,*c1ccc(Oc2ccc(C(c3ccc(Oc4ccc(-c5cccc(*)n5)cc4C(F)(F)F)cc3)(C(F)(F)F)C(F)(F)F)cc2)c(C(F)(F)F)c1 (repeat unit)
16,270.00,*Nc1cccc(NC(=O)c2cccc(C(=O)Nc3ccc(C(=O)NC(*)=S)cc3)c2)c1 (repeat unit)
17,305.00,*Nc1ccc(NC(=O)c2ccc(NC(=O)CCCCCCC(=O)Nc3ccc(C(*)=O)cc3)cc2)cc1C(=O)OCCCCCCCCCCCCCCCCCC (repeat unit)
18,65.00,*O[Si](C)(C)c1ccc2ccc3c([Si](*)(C)C)ccc4ccc1c2c43 (repeat unit)
19,117.70,*CCCCCCn1c2ccccc2c2cc(/C=C(\C#N)C(=O)OCCCCCCOC(=O)/C(C#N)=C/c3ccc4c(c3)c3ccccc3n4*)ccc21 (repeat unit)
20,301.00,*c1ccc(C(=O)c2ccc(-n3nc(-c4ccc(Oc5ccc(-c6nn(*)c(=O)c7ccccc67)cc5)cc4)c4ccccc4c3=O)cc2)cc1 (repeat unit)

row,glass transition temperature [°C],SMILES
1,125.00,*Oc1ccc2cc(OC(=O)c3ccc(-c4ccc(C(*)=O)cc4)cc3-c3ccccc3)ccc2c1 (repeat unit)
2,320.00,*c1ccc(Oc2ccc(S(=O)(=O)c3ccc(C)cc3)cc2)c(-n2c(=O)c3cc4c(=O)n(*)c(=O)c4cc3c2=O)c1 (repeat unit)
3,155.00,*c1ccc(NC(=O)c2ccc(OCCOCCOCCOc3ccc(C(=O)Nc4ccc5[nH]c(*)nc5c4)cc3)cc2)cc1 (repeat unit)
4,52.50,*CCCCCCCOC(=O)c1ccc2cc(C(=O)O*)ccc2c1 (repeat unit)
5,247.00,*c1ccc(Oc2ccc(C(=O)c3cccc(C(=O)c4ccc(Oc5ccc(-n6c(=O)c7cc8c(=O)n(*)c(=O)c8cc7c6=O)cc5)cc4)c3)cc2)cc1 (repeat unit)
6,91.50,*Oc1ccc(CC(NC(=O)CCc2ccc(OC(=O)CCC(*)=O)cc2)C(=O)OC)cc1 (repeat unit)
7,72.00,*Oc1ccc(-c2ccc(OC(=O)c3cc(OCCCc4ccccc4)c(C(*)=O)cc3OCCCc3ccccc3)cc2)cc1 (repeat unit)
8,119.00,*CCCOC(=O)Nc1ccc(Cc2ccc(NC(=O)O*)cc2)cc1 (repeat unit)
9,205.00,*c1ccc(Oc2ccc(C(=O)c3ccc(Oc4ccc(-c5cc(*)n(-c6ccccc6)n5)cc4)cc3)cc2)cc1 (repeat unit)
10,43.00,*Oc1ccc(CC(NC(=O)CCc2ccc(OC(=O)CCCC(*)=O)cc2)C(=O)OCCCCCC)cc1 (repeat unit)
11,254.00,*c1cccc(N2C(=O)c3ccc(Oc4ccc5ccc(Oc6ccc7c(c6)C(=O)N(*)C7=O)cc5c4)cc3C2=O)c1 (repeat unit)
12,238.00,*c1ccc(Oc2ccc(Oc3ccc(N4C(=O)C5CCC(C6CCC7C(=O)N(*)C(=O)C7C6)CC5C4=O)cc3)cc2)cc1 (repeat unit)
13,92.50,*CC(*)(C)C(=O)OCC(=O)c1ccccc1 (repeat unit)
14,192.00,*Oc1ccc(Oc2ccc(Oc3ccc(S(=O)(=O)c4ccc(*)cc4)cc3)cc2)cc1 (repeat unit)
15,236.00,*Oc1ccc(/C(=C/c2ccc(-c3ccc(/C=C(\c4ccccc4)c4ccc(OC(=O)c5ccc(C(*)=O)cc5)cc4)cc3)cc2)c2ccccc2)cc1 (repeat unit)
16,405.00,*c1ccc(C2(c3ccc(-c4cc(-c5ccccc5)c5cc(C6(c7ccc8nc(*)cc(-c9ccccc9)c8c7)c7ccccc7C(=O)c7ccccc76)ccc5n4)cc3)c3ccccc3-c3ccccc32)cc1 (repeat unit)
17,260.00,*c1cccc(C(=O)Nc2ccc(Oc3ccc(Oc4ccc(Oc5ccc(NC(=O)c6cccc(N7C(=O)c8ccc(-c9cccc%10c9C(=O)N(*)C%10=O)cc8C7=O)c6)cc5)cc4)cc3)cc2)c1 (repeat unit)
18,107.00,*C(=O)OCCCCCCOC(=O)c1ccc(NC(=O)c2ccc(N3C(=O)c4ccc(*)cc4C3=O)cc2)cc1 (repeat unit)
19,119.00,*Oc1ccc(OC(=O)c2cccc(Oc3cccc(C(*)=O)c3)c2)cc1 (repeat unit)
